Patent US20250121046A1, “MRNA THERAPEUTIC COMPOSITIONS” (Nutcracker Therapeutics, Inc., priority 2022, published 2025)
Entries after “also recorded” stand apart in the source; their conditions may differ.

Tests used:
[1] = tested on: cervical cancer whose tumors express PD-L1 (CPS≥1); settings: single agent, disease progression on or after chemotherapy, KEYNOTE-158; cited from earlier work
[2] = tested on: cervical cancer whose tumors express PD-L1 (CPS≥1); settings: in combination with chemotherapy, with or without bevacizumab; cited from earlier work
[3] = Mouse efficacy studies, tolerability assessments (Example 8); assay type: in vivo
[4] = Rat toxicology study, control mRNA in DV-140-F2 intramuscular (Example 8); assay type: in vivo, Sprague-Dawley rats
Procedure: Briefly, Sprague-Dawley rats (n=8) were treated with a control mRNA formulated in DV-140-F2 at 0.03 or 0.3 mg/kg or PBS vehicle. Injections were done 4 times over the course of 13 days and were administered intramuscularly into the hind limb. Whole blood was taken for hematology, and serum taken for clinical chemistry and cytokine analysis at 6 hours post the first dose and final dose, and 2 weeks post the final dose. Additionally, 2 of the animals were sacrificed at 6 hours post the final dose and 2 weeks post final dose and a gross necropsy was performed. Tissue samples were retained and histopathology run on select organs.

[5] = as above; assay type: in vivo, Sprague-Dawley rats; settings: Therapeutic dose scaled for rat: 4 doses in 2 weeks, 30 μg RNA IM
HVEM = biological target: T1, HVEM (Homo sapiens, UniProt Q92956); assay: HVEM activation by LIGHT-transfected cells (HVEM reporter cell line); assay type: cell-based
T1 construct: host or cells: HVEM reporter cell line (not further described)
T1 sequence (Q92956 39-283): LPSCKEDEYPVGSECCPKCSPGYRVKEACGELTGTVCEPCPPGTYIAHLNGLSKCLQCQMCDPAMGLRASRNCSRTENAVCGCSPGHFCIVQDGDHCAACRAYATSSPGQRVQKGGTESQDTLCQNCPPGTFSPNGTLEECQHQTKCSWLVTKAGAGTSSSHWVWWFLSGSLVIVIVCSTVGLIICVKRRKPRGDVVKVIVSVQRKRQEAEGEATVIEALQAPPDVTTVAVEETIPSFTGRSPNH
Description: FIGS. 1A and 1B depict the inhibition of the activation of membrane-stabilized LIGHT by soluble LIGHT.
FIG. 12 illustrates pre-blocking of soluble LIGHT in HVEM co-HEK transfected cells.
FIGS. 13A-13C are a comparison of HVEM activation with supernatant (blue) or cells (orange) for soluble LIGHT or membrane-stabilized LIGHT.
The incorporation of a modified membrane-stabilized LIGHT into a cancer immunotherapy allows for the effective targeting cancers, such as HPV-driven cancers.
[…] FIGS. 13A-13C show increased function of membrane-stabilized LIGHT on cells with HVEM reporter cell line and FIGS. 14A and 14B show increased cellular expression of membrane-stabilized LIGHT.

HEK cells = assay: Surface expression of LIGHT on transfected cells by flow cytometry using HVEM binding; assay type: cell-based, human; settings: compared to soluble (wild type) LIGHT
Description: FIG. 2A-2D are graphs illustrating the membrane-bound protein produced by the membrane-stabilized LIGHT generated according to an aspect of this disclosure as compared to soluble LIGHT.
FIGS. 14A and 14B depict the assessment of surface expression of soluble LIGHT or membrane-stabilized LIGHT by flow cytometry using HVEM binding.
This enhanced membrane stability for the disclosed membrane-stabilized LIGHT may increase the beneficial activity of LIGHT.
(§1) LIGHT variants were formulated in MessengerMax mRNA Transfection Reagent. Human embryonic kidney (HEK) cells were transfected with the LIGHT variant constructs for cell surface expression of LIGHT. CellTrace Violet (Thermo Fischer Scientific) was used to label CD3+ T cells from the resulting peripheral blood mononuclear cells (PBMC). 100 ng/mL of soluble CD3 Antibody was added to the resulting labeled CD3+ T cells. The T cell proliferation and interferon-gamma (IFN-7) secretion was evaluated about 5 days of co-culture.

CD3+ T cells = assay: T cell proliferation in co-culture with LIGHT-transfected HEK cells (Example 1); assay type: cell-based, human; settings: versus soluble (Wt) LIGHT
Procedure: as §1

primary human T cells = assay: Human T cell proliferation, ENG or WT hLIGHT mRNA with hIL-12 mRNA (Example 1A); assay type: cell-based; settings: anti-CD3 30 or 100 ng/mL, 4 days, relative to IL-12 and WT hLIGHT
Procedure: This study was designed to compare the ability of ENG and WT hLIGHT mRNAs in combination with hIL-12 mRNA to stimulate primary human T cell proliferation. Human T cells were isolated from PBMCs from 1 healthy donor and stained with CellTrace Violet. HEK293 cells were transfected with hIL-12 mRNA (RNA-683) and WT hLIGHT (RNA-786) or ENG hLIGHT (RNA-1359) mRNA formulated in Lipofectamine MessengerMAX (0.5 ng each mRNA per 1000 cells). Control cells were transfected with noncoding mRNA control in the same way. Transfected HEK293 cells were cocultured with the T cells in a 1:5 ratio in the presence of 30 ng/mL or 100 ng/mL anti-CD3 antibody to mimic antigen specific TCR engagement for 4 days at 37° C., 5% CO2. CD8+ T cell proliferation was assessed by flow cytometry and the proliferation index was calculated. […] The results are shown in FIG. 10A, where ENG=engineered; HEK=human embryonic kidney; IL-12=interleukin-12; PBMC=peripheral blood mononuclear cell; WT=wildtype. The data in FIG. 10A represent mean±standard deviation (n=4). Statistical analysis was performed by unpaired student's t-test (P<0.05).

[6] = Therapeutic dose in mouse: 3 doses 7 days apart, ~1-2 μg RNA IT or IM
[7] = High dose in rat: 4 doses in 2 weeks, 100 μg RNA IM

Question: For pembrolizumab [KEYTRUDA], which objective response [1] is on record?
Answer: The objective response was “around 14%”.

Question: What about the overall survival [2] of the same molecule?
Answer: Its overall survival is “improvements”.

Question: What does the source list for `CCCCCCCCCCN(CC(N)=O)C(=O)CN(CCCCCCCCCC)C(=O)CN(CCCCCCCCCC)C(=O)CN(CCCCCCCCCC)C(=O)CNCCO` [Compound 140, N-(2-amino-2-oxoethyl)-N-decyl-2-(N-decyl-2-(N-decyl-2-(N-decyl-2-((2-hydroxyethyl)amino)acetamido)acetamido)acetamido)acetamide]?
Answer: Body weight [3, 6]: No changes compared; Injection site reactions or other clinical observations [3, 6]: None observed; tolerability ([3]; mouse efficacy studies): well-tolerated; Gross organ pathology [4, 7]: None observed; Injection site reactions or other clinical observations [4, 7]: None observed; Clinical chemistries ([4]; High dose in rat: 4 doses in 2 weeks, 100 μg RNA IM, compared to control): No meaningful changes; Hematology parameters ([4]; High dose in rat: 4 doses in 2 weeks, 100 μg RNA IM, return to baseline by D30): Some transient changes; Serum cytokines ([4]; High dose in rat: 4 doses in 2 weeks, 100 μg RNA IM, subset of cytokines, return to baseline by D30): Elevated levels in subset; tolerability ([4]; rat toxicology studies): well-tolerated; Body weight [5]: No changes compared; Gross organ pathology [5]: None observed; Injection site reactions or other clinical observations [5]: None observed; Clinical chemistries ([5]; compared to control): No meaningful changes; Hematology parameters ([5]; compared to control): No changes compared; Serum cytokines ([5]; compared to control): No changes compared

B1: ENG hLIGHT: mRNA encoding human LIGHT with amino acids 66-92 replaced by 10 amino acid linker …; membrane-stabilized (nucleic acid)
chain: AGGCAUAGAAGUCGAGACACAGCCACUAAGUAAGCCACCAUGGAGGAGAGCGUGGUGCGGCCUAGCGUGUUCGUGGUCGACGGCCAGACCGACAUCCCCUUCACCAGACUGGGAAGAAGCCACAGAAGGCAGUCUUGCUCCGUGGCCAGAGUGGGCCUGGGCCUGCUCCUGCUGCUGAUGGGCGCUGGCCUGGCCGUGCAAGGCUGGUUCCUGCUGCAGCUGCACUGGCGGCUGGGCAGCAGCGCCUCUACCGAUAAGACCCACACCGUGAACCCUGCCGCCCACCUGACCGGCGCCAACAGCUCUCUGACCGGAUCUGGCGGACCUCUGCUGUGGGAGACACAGCUGGGCCUUGCUUUUCUGCGGGGCCUGAGCUACCACGACGGCGCUCUGGUGGUUACAAAGGCCGGCUACUACUACAUCUACAGCAAGGUGCAGCUGGGAGGCGUGGGUUGUCCACUGGGACUGGCCAGCACAAUCACACACGGCCUUUAUAAGCGGACCCCUAGAUACCCCGAGGAACUGGAACUGCUGGUCUCCCAGCAGAGCCCUUGCGGCAGAGCCACAAGCAGCAGCAGAGUGUGGUGGGACAGCUCAUUCCUGGGCGGCGUGGUGCAUCUGGAAGCCGGCGAGAAAGUGGUGGUCAGAGUGCUGGACGAGAGACUGGUGCGGCUGAGAGAUGGGACCCGCUCCUACUUCGGCGCCUUUAUGGUGUGAUAAGCGCCGCCUCCGGGACAGUGCACCCAGGCUGCGGCCCCUCCCCCGUCCUGGAGGUUCCCCAGCCCCACUUACCGCUUAAUGCGCCAAUAAACCAAUGAACGAAGCAAAAAAAAAAAAAAAAAAAAAAAAAAAAAAAAAAAAAAAAAAAAAAAAAAAAAAAAAAAAAAAAAAAAAAAAAAAAAAAAAAAAAAAAAAAAAAAAAAAAAAAAAAAAAAAAAAAAAAAAAAAAAAAAAAAAAAAAAAAAAAAAAAAAAAAAAAAAAAAAAAAAAAAAA
modifications: LIGHT ICD TM 1-66 RLG … LIGHT 92-240 1359, aka 1495 nt
notes: mRNA encoding human LIGHT with amino acids 66-92 replaced by 10 amino acid linker …; membrane-stabilized
Question: Which results are given for B1?
Answer: bioactivity on transfected cells (HVEM; compared to WT LIGHT mRNA): higher; soluble fraction (HEK cells): significantly lower; cell-surface expression of membrane-bound protein (HEK cells; listed as ENG LIGHT mRNA): higher; cell-surface expression of membrane-bound protein (HEK cells; listed as Engineered LIGHT): significantly higher; T-cell proliferation (CD3+ T cells; listed as 1359): increase; T-cell proliferation (CD3+ T cells; listed as ENG LIGHT mRNA): increased; CD8+ T cell proliferation and survival (primary human T cells): increased

B2: soluble LIGHT: Wild-type soluble human LIGHT (protein)
chain: MEESVVRPSVFVVDGQTDIPFTRLGRSHRRQSCSVARVGLGLLLLLMGAGLAVQGWFLLQLHWRLGEMVTRLPDGPAGSWEQLIQERRSHEVNPAAHLTGANSSLTGSGGPLLWETQLGLAFLRGLSYHDGALVVTKAGYYYIYSKVQLGGVGCPLGLASTITHGLYKRTPRYPEELELLVSQQSPCGRATSSSRVWWDSSFLGGVVHLEAGEEVVVRVLDERLVRLRDGTRSYFGAFMV
modifications: Human Wild Type LIGHT (786) aa
Question: With B2 as the molecule, how does the “effect of soluble LIGHT on HVEM activation/signaling by membrane-stabilized LIGHT” value (HVEM; presence of soluble LIGHT) read?
Answer: Its value is “decreases; also recorded: competes for HVEM binding and reduces signaling”.

B3: 1356: mRNA encoding LIGHT ICD + TM (1-66) + (Gly4Ser)2 + LIGHT 92-240 (nucleic acid)
chain: AGGCAUAGAAGUCGAGACACAGCCACUAAGUAAGCCACCAUGGAAGAGUCUGUGGUCAGACCUAGCGUGUUCGUGGUCGACGGCCAGACCGACAUCCCCUUCACCAGACUGGGAAGAAGCCAUAGAAGACAGAGCUGCAGCGUGGCCAGAGUGGGCCUCGGCCUGCUGCUGCUGCUGAUGGGCGCUGGCCUGGCCGUGCAAGGCUGGUUCCUGCUGCAGCUGCACUGGCGGCUGGGCGGAGGCGGCGGCUCUGGCGGCGGAGGCUCCGUGAACCCCGCCGCCCACCUGACCGGCGCCAACAGCAGCCUGACAGGCAGCGGCGGUCCUCUGCUGUGGGAAACCCAGCUGGGACUGGCUUUUCUGAGAGGCCUGAGCUACCACGACGGCGCCCUGGUGGUGACCAAGGCCGGCUAUUACUACAUCUACAGCAAGGUGCAGCUGGGCGGCGUUGGAUGUCCUCUGGGCCUGGCUUCUACAAUCACCCACGGCCUGUACAAGCGGACCCCUAGAUACCCUGAGGAACUGGAGCUGCUGGUGUCCCAGCAGUCCCCAUGCGGCCGGGCCACAAGCUCUUCUAGAGUGUGGUGGGAUAGCAGCUUCCUGGGCGGAGUGGUGCACCUCGAGGCCGGAGAGAAAGUGGUGGUGCGGGUGCUGGAUGAGAGACUGGUUAGGCUGCGCGACGGCACACGGAGCUACUUCGGCGCCUUUAUGGUGUGAUAAGCGCCGCCUCCGGGACAGUGCACCCAGGCUGCGGCCCCUCCCCCGUCCUGGAGGUUCCCCAGCCCCACUUACCGCUUAAUGCGCCAAUAAACCAAUGAACGAAGCAAAAAAAAAAAAAAAAAAAAAAAAAAAAAAAAAAAAAAAAAAAAAAAAAAAAAAAAAAAAAAAAAAAAAAAAAAAAAAAAAAAAAAAAAAAAAAAAAAAAAAAAAAAAAAAAAAAAAAAAAAAAAAAAAAAAAAAAAAAAAAAAAAAAAAAAAAAAAAAAAAAAAAAAA
modifications: LIGHT ICD TM 1-66 RLG Gly4Ser 2 LIGHT 92-240 1356 nt
Question: For B3, which T-cell proliferation (CD3+ T cells) is on record?
Answer: The T-cell proliferation was “increase”.
